# The source made the active and inactive calls. The calls are words filed in the database; no cut-off is given here.
# How the values were obtained:
# HL-60 [1] = experiment: Cytotoxicity against human HL60 cells after 48 hrs by MTT assay; format: functional, cell-based; details: HL-60, 48 h
# HL-60 [2] = experiment: Induction of apoptosis in human HL60 cells assessed as apoptotic bodies at 4 ug/mL after 24 hrs by fluorescence microscopy; format: functional
# LNCaP [3] = experiment: Induction of apoptosis in human LNCaP cells assessed as apoptotic bodies at 20 ug/mL after 24 hrs by fluorescence microscopy; format: functional
# HL-60 [4] = experiment: Induction of apoptosis in human HL60 cells at 4 ug/mL after 24 hrs in presence of antisense caspase-3 oligonucleotide; format: functional, cell-based
# HL-60 [5] = experiment: Induction of apoptosis in human HL60 cells at 4 ug/mL after 24 hrs in presence of sense caspase-3 oligonucleotide; format: functional
# HL-60 [6] = experiment: Induction of apoptosis in human HL60 cells assessed as mean fluorescence intensity of mitochondrial membrane potential dissipation at 1 ug/mL after 24 hrs; format: functional
# HL-60 [7] = experiment: Induction of apoptosis in human HL60 cells assessed as mean fluorescence intensity of mitochondrial membrane potential dissipation at 4 ug/mL after 24 hrs; format: functional
# LNCaP [8] = experiment: Induction of apoptosis in human LNCaP cells assessed as mean fluorescence intensity of mitochondrial membrane potential dissipation at 20 ug/mL after 24 hrs; format: functional
# HL-60 [9] = experiment: Induction of apoptosis in human HL60 cells assessed as increase in FasL levels after 24 hrs by immunoblot; format: functional, cell-based
# LNCaP [10] = experiment: Induction of apoptosis in human LNCaP cells assessed as increase in FasL levels after 24 hrs by immunoblot; format: functional, cell-based
# HL-60 [11] = experiment: Induction of apoptosis in human HL60 cells assessed as decrease in Bcl-2 levels at 1 […] after 24 hrs by immunoblot; format: functional, cell-based
# LNCaP [12] = experiment: Induction of apoptosis in human LNCaP cells assessed as decrease in Bcl-2 levels at 20 […] after 24 hrs by immunoblot; format: functional, cell-based
# HL-60 [13] = experiment: Induction of apoptosis in human HL60 cells assessed as increase in caspase-3 levels at 1 […] after 24 hrs by immunoblot; format: functional, cell-based
# LNCaP [14] = experiment: Induction of apoptosis in human LNCaP cells assessed as increase in caspase-3 levels at 20 […] after 24 hrs by immunoblot; format: functional, cell-based
# HL-60 [15] = experiment: Induction of apoptosis in human HL60 cells assessed as increase in transcription of NADPH oxidase component gp91phox after 5 hrs by immunoblot; format: functional, cell-based
# LNCaP [16] = experiment: Induction of apoptosis in human LNCaP cells assessed as increase in transcription of NADPH oxidase component gp91phox after 5 hrs by immunoblot; format: functional, cell-based
# HL-60 [17] = experiment: Induction of apoptosis in human HL60 cells assessed as increase in transcription of NADPH oxidase component p22phox after 5 hrs by immunoblot; format: functional, cell-based
# LNCaP [18] = experiment: Induction of apoptosis in human LNCaP cells assessed as increase in transcription of NADPH oxidase component p22phox after 5 hrs by immunoblot; format: functional, cell-based
# HL-60 [19] = experiment: Induction of apoptosis in human HL60 cells assessed as increase in transcription of NADPH oxidase component p67phox after 5 hrs by immunoblot; format: functional, cell-based
# LNCaP [20] = experiment: Induction of apoptosis in human LNCaP cells assessed as increase in transcription of NADPH oxidase component p67phox after 5 hrs by immunoblot; format: functional, cell-based
# HL-60 [21] = experiment: Induction of apoptosis in human HL60 cells assessed as increase in transcription of NADPH oxidase component p47phox after 5 hrs by immunoblot; format: functional, cell-based
# LNCaP [22] = experiment: Induction of apoptosis in human LNCaP cells assessed as increase in transcription of NADPH oxidase component p47phox after 5 hrs by immunoblot; format: functional, cell-based
# HL-60 [23] = experiment: Induction of apoptosis in human HL60 cells assessed as increase in transcription of NOX1 after 5 hrs by immunoblot; format: functional, cell-based
# HL-60 [24] = experiment: Induction of apoptosis in human HL60 cells assessed as increase in transcription of NOX4 after 5 hrs by immunoblot; format: functional, cell-based
# HL-60 [25] = experiment: Induction of apoptosis in human HL60 cells assessed as increase in transcription of NOX5 after 5 hrs by immunoblot; format: functional, cell-based
# LNCaP [26] = experiment: Induction of apoptosis in human LNCaP cells assessed as ROS generation; format: functional, cell-based
# LNCaP [27] = experiment: Cytotoxicity against human LNCaP cells after 48 hrs by MTT assay; format: functional, cell-based
smiles,measurement,setting,value
C\C(=C/C=C/C(C)=C1/C(=O)C[C@H]2[C@@]3(C)CCC(=O)C(C)(C)[C@@H]3CC[C@]12C)c1ccc(C)c(=O)o1 [STELLETIN A],IC50,HL-60 [1],0.4 µg/mL
same,Activity,HL-60 [2],56%
same,Activity,LNCaP [3],<10%
same,Activity,HL-60 [4],inactive
same,Activity,HL-60 [5],51%
same,Activity,HL-60 [6],23.28
same,Activity,HL-60 [7],3.09
same,Activity,LNCaP [8],38.82
same,Activity,HL-60 [9],Dose-dependent effect
same,Activity,LNCaP [10],Dose-dependent effect
same,Activity,HL-60 [11],Active
same,Activity,LNCaP [12],inactive
same,Activity,HL-60 [13],Active
same,Activity,LNCaP [14],inactive
same,Activity,HL-60 [15],Dose-dependent effect
same,Activity,LNCaP [16],inactive
same,Activity,HL-60 [17],Dose-dependent effect
same,Activity,LNCaP [18],inactive
same,Activity,HL-60 [19],Dose-dependent effect
same,Activity,LNCaP [20],inactive
same,Activity,HL-60 [21],Dose-dependent effect
same,Activity,LNCaP [22],inactive
same,Activity,HL-60 [23],inactive
same,Activity,HL-60 [24],inactive
same,Activity,HL-60 [25],inactive
same,Activity,LNCaP [26],Active
same,IC50,LNCaP [27],120 µg/mL
